This passage reports EC50 and Intrinsic activity results from ChEMBL document CHEMBL3397017, “Discovery of a new series of potent prostacyclin receptor agonists with in vivo activity in rat” (Bioorg Med Chem Lett, 2015).

Test [1] addresses T1, Prostacyclin receptor (Homo sapiens, UniProt P43119). Nature of the test: Agonist activity at human recombinant IP receptor expressed in CHO-K1 cells incubated for 1 hr by HTRF cAMP assay. Type of test: functional, cell-based. For orientation: Time-resolved FRET reads energy transfer from a long-lived donor to a nearby acceptor.
Test [2] deals with T1, Prostacyclin receptor. Nature of the test: Intrinsic activity at human recombinant IP receptor expressed in CHO-K1 cells incubated for 1 hr by HTRF cAMP assay relative to 1 uM iloprost. It is filed as functional, cell-based.
Test [3] deals with Prostacyclin receptor (Rattus norvegicus, UniProt P43253). Briefly: Agonist activity at rat recombinant IP receptor expressed in CHO-K1 cells incubated for 1 hr by HTRF cAMP assay. It is filed as functional, cell-based.
Test [4] concerns the target Prostacyclin receptor (Rattus norvegicus) (UniProt P43253). Nature of the test: Intrinsic activity at rat recombinant IP receptor expressed in CHO-K1 cells incubated for 1 hr by HTRF cAMP assay relative to 1 uM iloprost. It is filed as functional, cell-based.
Test [5] deals with T2, Prostaglandin D2 receptor (Homo sapiens, UniProt Q13258).
T2 sequence (Q13258 whole entry): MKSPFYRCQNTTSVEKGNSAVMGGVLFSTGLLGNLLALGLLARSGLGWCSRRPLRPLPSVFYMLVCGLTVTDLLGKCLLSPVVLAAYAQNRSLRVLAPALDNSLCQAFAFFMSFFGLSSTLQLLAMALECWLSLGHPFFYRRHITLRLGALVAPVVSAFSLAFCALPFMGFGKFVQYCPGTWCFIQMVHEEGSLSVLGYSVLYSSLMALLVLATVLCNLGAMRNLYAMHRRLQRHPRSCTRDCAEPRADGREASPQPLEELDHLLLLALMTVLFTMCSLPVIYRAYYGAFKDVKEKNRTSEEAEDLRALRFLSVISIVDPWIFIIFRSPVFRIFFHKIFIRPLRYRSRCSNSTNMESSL
Briefly: Agonist activity at human recombinant DP1 receptor expressed in melanophores assessed as induction of pigment redistribution incubated for 90 mins.

T1 sequence (P43119 whole entry): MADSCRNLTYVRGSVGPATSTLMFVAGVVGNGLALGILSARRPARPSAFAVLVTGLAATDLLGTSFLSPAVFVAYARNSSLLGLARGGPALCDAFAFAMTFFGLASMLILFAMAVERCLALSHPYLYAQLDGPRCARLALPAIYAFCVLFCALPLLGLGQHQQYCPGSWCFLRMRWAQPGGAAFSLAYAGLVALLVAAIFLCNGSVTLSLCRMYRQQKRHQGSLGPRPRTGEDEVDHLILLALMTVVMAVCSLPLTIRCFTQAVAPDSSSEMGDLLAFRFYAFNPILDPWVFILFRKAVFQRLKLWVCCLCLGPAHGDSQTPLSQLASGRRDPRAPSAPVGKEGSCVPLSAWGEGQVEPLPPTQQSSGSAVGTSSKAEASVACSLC
Sequence of Prostacyclin receptor (Rattus norvegicus) (P43253 whole entry): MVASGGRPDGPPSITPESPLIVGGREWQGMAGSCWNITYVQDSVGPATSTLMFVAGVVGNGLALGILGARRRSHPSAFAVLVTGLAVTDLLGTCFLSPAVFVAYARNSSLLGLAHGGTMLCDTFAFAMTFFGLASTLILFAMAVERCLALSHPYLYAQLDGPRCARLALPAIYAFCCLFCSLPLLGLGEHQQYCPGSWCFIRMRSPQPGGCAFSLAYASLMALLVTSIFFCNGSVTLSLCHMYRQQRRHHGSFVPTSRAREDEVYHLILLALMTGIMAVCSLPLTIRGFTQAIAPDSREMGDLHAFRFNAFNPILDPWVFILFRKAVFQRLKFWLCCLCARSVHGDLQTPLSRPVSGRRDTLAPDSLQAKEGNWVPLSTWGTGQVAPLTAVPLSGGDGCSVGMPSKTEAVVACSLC
Sequence of Prostacyclin receptor (Rattus norvegicus, UniProt P43253) (P43253 whole entry): as above

By EC50 is commonly meant the concentration that produces a half-maximal response. As for `O=C(O)COc1cccc2c1CCC(Cn1nc(-c3ccccc3)c(-c3cccc(Cl)c3)cc1=O)C2` (racemic), the results for the EC50 in test [1], in test [3] and in test [5] were 60 nM, 360 nM and 61 nM, respectively. Besides, the Intrinsic activity in test [2] was 77%; in test [4], 62%.
`O=C(O)COc1cccc2c1CCC(Cn1nc(-c3cccc(F)c3)c(-c3ccccc3)cc1=O)C2` (racemic): the EC50 in test [1] is 1060 nM; in test [3] it was 2370 nM. The Intrinsic activity turned out to be 88% in test [2] and 99% in test [4].
Taken in the same sequence, the figures for `Cc1ccc(-c2nn(CC3CCc4c(cccc4OCC(=O)O)C3)c(=O)cc2-c2ccccc2)cc1` (racemic) were 24 nM, 120 nM, 67% and 99%.
For `O=C(O)COc1cccc2c1CCC(Cn1nc(-c3ccc(F)cc3)c(-c3ccccc3)cc1=O)C2` (racemic), the EC50 in test [1] is 114 nM; in test [3] it was 1500 nM. The Intrinsic activity in test [2] was 89%; in test [4], 93%.
Turning to `COc1cccc(-c2cc(=O)n(CC3CCc4c(cccc4OCC(=O)O)C3)nc2-c2ccc(C)cc2)c1` (racemic), the EC50 in test [1] was 9.5 nM; in test [3] it was 28 nM; in test [5], 11 nM. The Intrinsic activity in test [2] amounted to 81%; in test [4] it was 107%.
Regarding `COc1cccc(-c2cc(=O)n(CC3CCc4c(cccc4OCC(=O)O)C3)nc2-c2ccc(F)cc2)c1` (racemic), the results for the EC50 in test [1], in test [3] and in test [5] were 62 nM, 620 nM and 24 nM, respectively. The results for the Intrinsic activity in test [2] and in test [4] were 91% and 102%, respectively.
For `O=C(O)COc1cccc2c1CCC(Cn1ncc(-c3ccccc3)c(-c3ccccc3)c1=O)C2` (racemic) the same measures were 100 nM, 260 nM, 180 nM, 75% and 88%.
For `O=C(O)COc1cccc2c1CCC(Cn1ncc(-c3cccc(F)c3)c(-c3ccccc3)c1=O)C2` (racemic) the same measures were 60 nM, 410 nM, 88 nM, 82% and 103%.
Take `O=C(O)COc1cccc2c1CCC(Cn1ncc(-c3cccc(Cl)c3)c(-c3ccccc3)c1=O)C2` (racemic): the EC50 in test [1] is 86 nM; in test [3], 260 nM. Further, the Intrinsic activity in test [2] was 93%; in test [4], 98%.
As for `O=C(O)COc1cccc2c1CCC(Cn1ncc(-c3ccccc3F)c(-c3ccccc3)c1=O)C2` (racemic), the values for the EC50 in test [1], in test [3] and in test [5] were 120 nM, 420 nM and 31 nM, respectively. Moreover, the results for the Intrinsic activity in test [2] and in test [4] were 106% and 99%, respectively.
For `O=C(O)COc1cccc2c1CCC(Cn1ncc(-c3ccccc3)c(-c3ccccc3F)c1=O)C2` (racemic), the EC50 in test [1] was found to be 140 nM; in test [3] it was 370 nM. For the same compound, the Intrinsic activity in test [2] was 91%; in test [4], 116%.
Taken in the same sequence, the figures for `O=C(O)COc1cccc2c1CCC(Cn1ncc(-c3ccccc3)c(-c3cccc(F)c3)c1=O)C2` (racemic) were 260 nM, 790 nM, 100% and 121%.
As for `O=C(O)COc1cccc2c1CCC(Cn1ncc(-c3ccccc3)c(-c3ccc(F)cc3)c1=O)C2` (racemic), the EC50 in test [1] turned out to be 20 nM; in test [3], 170 nM. The Intrinsic activity in test [2] came to 80%; in test [4] it was 104%.
Regarding `O=C(O)COc1cccc2c1CCC(Cn1ncc(-c3cccc(F)c3F)c(-c3ccc(F)cc3)c1=O)C2` (racemic), the EC50 in test [1] is 33 nM; in test [3], 266 nM; in test [5] it was 42 nM. The Intrinsic activity in test [2] was 94%; in test [4], 103%.
